# Values of other authors in patent US20110300245A1, “Topical, palatable, anti-inflammatory and analgesic for specific application to intraoral, gingival and extraoral areas correlated with, and related to, the trigeminal nerve and its nerve branches and plexus. To mitigate, attenuate or prevent migraine-type headache, cluster-type headache, …” (priority 2010, published 2011).
# Like-named read-outs stand apart in the source and are kept apart here.
# Assays:
# cell proliferation = details: in vitro
# [1] = for patients with symptoms controlled within 2 weeks: added orally to the sulfasalazine/prednisolone regimen, allopurinol 50 mg or DMSO 500 mg four times a day, p<0.01
# [2] = in vivo
# [3] = tested on: peripheral nerve C fibers; details: laboratory studies
# [4] = not given; remark: listed apart in the source
# [5] = not given; remark: listed apart in the source
# [6] = not given; remark: listed apart in the source
# [7] = rheumatoid arthritis patients
# [8] = intravesical, 213 patients
# [9] = not given; remark: listed apart in the source
# [10] = given with sulfasalazine 2 gm daily, p<0.05
compound,measurement,setting,value
CC(C(=O)O)c1cccc(C(=O)c2ccccc2)c1 (stereo not shown) [Ketoprofen],side effects,30-day treatment phase,minimal
same,average monthly headache burden score (intensity 0-10 x duration in hours),"30-day treatment phase, gel once daily, 20 patients, 30-day baseline 454.8, p<0.001",86.5
same,analgesic and headache medication intake,treatment phase versus baseline,significantly reduced
"O=C(O)C[C@H](O)C(=O)OC[C@H]1O[C@H](O[C@H]2[C@H](O)[C@@H](O)[C@@H](O[C@H]3[C@H](O)[C@@H](O)[C@@H](O[C@H]4[C@H](O)[C@@H](O)[C@@H](O[C@H]5[C@H](O)[C@@H](O)C(O)O[C@@H]5COC(=O)[C@@H](O)CC(=O)O)O[C@@H]4COC(=O)[C@@H](O)CC(=O)O)O[C@@H]3COC(=O)[C@@H](O)CC(=O)O)O[C@@H]2COC(=O)[C@@H](O)CC(=O)O)[C@H](O)[C@@H](O)[C@@H]1O[C@H]1O[C@H](CO)[C@@H](O)[C@H](O)[C@H]1O (stereo partly drawn) [veracylglucan C, alpha-D-Glcp-(1-->4)-tetra-[6-O-(1-L-maloyl)-alpha-D-Glcp-(1-->4)]-6-O-(1-L-maloyl)-alpha,-beta-D-Glcp]",anti-inflammatory activity and effect on cell proliferation,cell proliferation,significant cell proliferative and anti-inflammatory activities
"C[S+](C)[O-] [DMSO, dimethyl sulfoxide]",patients with symptoms controlled within 2 weeks,[1],84%
same,patients relapsed during 12 months of prophylactic treatment,[1]; [10],5%
same,edema in animals,[2],reduction of edema
same,nerve conduction,[3],blocking peripheral nerve C fibers
same,relief of pain in rheumatoid arthritis,[4]; 27 patients with rheumatoid arthritis,all but four had some degree of relief of pain
same,pain relief,"[4]; 103 patients, topical application",pain relief of varying degrees in most patients
same,time to pain relief after application,"[4]; DMSO 1.0 ml, five patients with acute supraspinatus tendon pain associated with calcification",≤ 10 min
same,symptomatic relief,[4]; all six patients with acute calcified supraspinatus bursitis,Spectacular symptomatic relief
same,recovery with normal use of the shoulder,[4]; continued applications every four hours over the following 24 hour period,complete recovery
same,number of patients with normal ICP,"[5]; after 6 days of treatment, ten patients",7
same,ICP after 24 h,"[5]; intravenous every 6 h, all ten patients, ICP 40-127 mm Hg",reduction of ICP
same,neurological outcome,"[5]; severe closed-head injury patients, intravenous",improves neurological outcome
same,patients showing improvement,[6]; acute patients,80%
same,patients showing improvement,[6]; chronic patients,60%
same,"effects on joint pain, range of joint motion and grip strength",[7],analgesic and anti-inflammatory effects
same,systemic or local toxicity,[8],no systemic or local toxicity
same,symptomatic relief,[8]; majority of patients,Significant symptomatic relief
Oc1ncnc2[nH]ncc12 [allopurinol],patients with symptoms controlled within 2 weeks,[1],84%
same,patients relapsed during 12 months of prophylactic treatment,[1]; [10],5%
"O=C(O)c1cc(/N=N/c2ccc(S(=O)(=O)Nc3ccccn3)cc2)ccc1O [sulfasoizine, sulfasalazine]",patients relapsed during 12 months of prophylactic treatment,[1]; sulfasalazine 2 gm daily alone,25%
CNS(=O)(=O)Cc1ccc2[nH]cc(CCN(C)C)c2c1 [sumatriptan],mean headache relief (0-10 scale),"[9]; 50 mg oral, at 1, 2, 4, and 24 hours after initiation of treatment",Significant mean headache relief
same,nausea relief,"[9]; 50 mg oral, same post treatment time intervals (1, 2, 4, 24 hours)",Significant nausea relief
same,headache and nausea recurrence,[9]; at 24 hours,some headache and nausea recurrence
"O=C(O)C[C@H](O)C(=O)OC[C@H]1OC(O)[C@H](O)[C@@H](O)[C@@H]1O[C@H]1O[C@H](CO)[C@@H](O)[C@H](O)[C@H]1O (stereo partly drawn) [veracylglucan B, alpha-D-Glcp-(1-->4)-6-O-(1-L-maloyl)-alpha,-beta,-D-Glcp]",anti-inflammatory activity and effect on cell proliferation,cell proliferation,potent anti-inflammatory and anti-proliferative effects
